# Publication PMC5218480 (PLoS ONE, 2017)
# Test system: MV-4-11 cells
# Test: Gene expression microarray analysis (Affymetrix PrimeView) and GSEA
# Type: cell-based, human
# Set-up: RFU PODN (11730768_x_at) / Fold change /veh PODN (11730768_x_at) / RFU LINC00158 (11744669_a_at) / Fold change /veh LINC00158 (11744669_a_at) / RFU DUSP10 (11751237_a_at) / Fold change /veh DUSP10 (11751237_a_at) / RFU ID3 (11757404_x_at) / Fold change /veh ID3 (11757404_x_at) / RFU PLEKHG5 (11737974_s_at) / Fold change /veh PLEKHG5 (11737974_s_at) / RFU LRRC4B (11730491_at) / Fold change /veh LRRC4B (11730491_at) / RFU GIMAP4 (11747438_a_at) / Fold change /veh GIMAP4 (11747438_a_at) / RFU KRT8 (11758183_x_at) / Fold change /veh KRT8 (11758183_x_at) / RFU CNN1 (11734310_a_at) / Fold change /veh CNN1 (11734310_a_at) / RFU VPS37D (11726825_at) / Fold change /veh VPS37D (11726825_at) / RFU C10orf10 (11716522_x_at) / Fold change /veh C10orf10 (11716522_x_at) / RFU KIR2DL2 /// KIR2DL4 /// KIR2DL5A /// KIR2DL5B /// KIR2DS1 /// KIR2DS2 /// KIR2DS3 /// KIR2DS4 /// KIR3DL3 /// KIR3DL3 /// KIR3DS1 (11738374_at) / Fold change /veh KIR2DL2 /// KIR2DL4 /// KIR2DL5A /// KIR2DL5B /// KIR2DS1 /// KIR2DS2 /// KIR2DS3 /// KIR2DS4 /// KIR3DL3 /// KIR3DL3 /// KIR3DS1 (11738374_at) / RFU C1QL1 (11718748_at) / Fold change /veh C1QL1 (11718748_at) / RFU TMPRSS4 (11747572_a_at) / Fold change /veh TMPRSS4 (11747572_a_at) / RFU HAMP (11756126_x_at) / Fold change /veh HAMP (11756126_x_at) / RFU RNFT2 (11725882_a_at) / Fold change /veh RNFT2 (11725882_a_at) / RFU NR4A2 (11747474_a_at) / Fold change /veh NR4A2 (11747474_a_at) / RFU ABCC12 (11746883_a_at) / Fold change /veh ABCC12 (11746883_a_at) / RFU TMEM136 (11760407_x_at) / Fold change /veh TMEM136 (11760407_x_at) / RFU CLDN22 /// WWC2 (11732394_at) / Fold change /veh CLDN22 /// WWC2 (11732394_at) / RFU HLA-DPB1 (11760878_x_at) / Fold change /veh HLA-DPB1 (11760878_x_at) / RFU SPINT1 (11716480_a_at) / Fold change /veh SPINT1 (11716480_a_at) / RFU GAP43 (11754022_s_at) / Fold change /veh GAP43 (11754022_s_at) / RFU A4GNT (11735810_at) / Fold change /veh A4GNT (11735810_at) / RFU PRB3 (11715151_x_at) / Fold change /veh PRB3 (11715151_x_at) / RFU TUBB4B (11761932_at) / Fold change /veh TUBB4B (11761932_at) / RFU CAPN14 (11732068_a_at) / Fold change /veh CAPN14 (11732068_a_at) / RFU TMCC2 (11721928_a_at) / Fold change /veh TMCC2 (11721928_a_at) / RFU IRGQ (11745062_a_at) / Fold change /veh IRGQ (11745062_a_at) / RFU FAM174B (11720279_a_at) / Fold change /veh FAM174B (11720279_a_at) / RFU TMPRSS4 (11748680_a_at) / Fold change /veh TMPRSS4 (11748680_a_at) / RFU FAM212B (11763350_a_at) / Fold change /veh FAM212B (11763350_a_at) / RFU PLEKHG5 (11743358_a_at) / Fold change /veh PLEKHG5 (11743358_a_at) / RFU ZSCAN30 (11745921_a_at) / Fold change /veh ZSCAN30 (11745921_a_at) / RFU CMKLR1 (11741424_a_at) / Fold change /veh CMKLR1 (11741424_a_at) / RFU LOC101060620 /// MAPK8IP1 (11723275_at) / Fold change /veh LOC101060620 /// MAPK8IP1 (11723275_at) / RFU SPTSSB (11747773_x_at) / Fold change /veh SPTSSB (11747773_x_at) / RFU PRSS12 (11739890_at) / Fold change /veh PRSS12 (11739890_at) / RFU BIN1 (11741810_x_at) / Fold change /veh BIN1 (11741810_x_at) / RFU WNT11 (11732464_a_at) / Fold change /veh WNT11 (11732464_a_at) / RFU C10orf10 (11716521_a_at) / Fold change /veh C10orf10 (11716521_a_at) / RFU C5orf56 (11738089_at) / Fold change /veh C5orf56 (11738089_at) / RFU CYB561 (11721691_x_at) / Fold change /veh CYB561 (11721691_x_at) / RFU ANKRD19P (11752326_a_at) / Fold change /veh ANKRD19P (11752326_a_at) / RFU OR2T12 /// OR2T33 /// OR2T8 (11738714_s_at) / Fold change /veh OR2T12 /// OR2T33 /// OR2T8 (11738714_s_at) / RFU VCAN (11748164_a_at) / Fold change /veh VCAN (11748164_a_at) / RFU JSRP1 (11732532_at) / Fold change /veh JSRP1 (11732532_at) / RFU KRTAP10-11 (11738290_x_at) / Fold change /veh KRTAP10-11 (11738290_x_at) / RFU MYO3A (11730013_a_at) / Fold change /veh MYO3A (11730013_a_at) / RFU EBF3 (11725865_a_at) / Fold change /veh EBF3 (11725865_a_at) / RFU CAMK2N1 (11719241_x_at) / Fold change /veh CAMK2N1 (11719241_x_at) / RFU C5orf56 (11738088_a_at) / Fold change /veh C5orf56 (11738088_a_at) / RFU OLFML3 (11715873_a_at) / Fold change /veh OLFML3 (11715873_a_at) / RFU LOC100653217 /// NTM (11731650_a_at) / Fold change /veh LOC100653217 /// NTM (11731650_a_at) / RFU MAPK11 (11762145_a_at) / Fold change /veh MAPK11 (11762145_a_at) / RFU FIZ1 (11724087_x_at) / Fold change /veh FIZ1 (11724087_x_at) / RFU OASL (11726364_x_at) / Fold change /veh OASL (11726364_x_at) / RFU SOX15 (11748057_x_at) / Fold change /veh SOX15 (11748057_x_at) / RFU CD79A (11719716_a_at) / Fold change /veh CD79A (11719716_a_at) / RFU HIST1H1D (11736915_at) / Fold change /veh HIST1H1D (11736915_at) / RFU CASKIN2 (11723855_a_at) / Fold change /veh CASKIN2 (11723855_a_at) / RFU LOC730098 (11760151_x_at) / Fold change /veh LOC730098 (11760151_x_at) / RFU OR4N2 (11742367_at) / Fold change /veh OR4N2 (11742367_at) / RFU PRRT2 (11749266_a_at) / Fold change /veh PRRT2 (11749266_a_at) / RFU SNX32 (11753110_a_at) / Fold change /veh SNX32 (11753110_a_at) / RFU CDHR5 (11726645_a_at) / Fold change /veh CDHR5 (11726645_a_at) / RFU RCAN1 (11760418_a_at) / Fold change /veh RCAN1 (11760418_a_at) / RFU FAM167A (11723789_a_at) / Fold change /veh FAM167A (11723789_a_at) / RFU FAM26E (11764081_at) / Fold change /veh FAM26E (11764081_at) / RFU ISYNA1 (11749810_s_at) / Fold change /veh ISYNA1 (11749810_s_at) / RFU ACY1 (11761880_at) / Fold change /veh ACY1 (11761880_at) / RFU 11764098_at / Fold change /veh 11764098_at / RFU SAMD14 (11745864_x_at) / Fold change /veh SAMD14 (11745864_x_at) / RFU NPB (11741838_a_at) / Fold change /veh NPB (11741838_a_at) / RFU TMPRSS6 (11731388_a_at) / Fold change /veh TMPRSS6 (11731388_a_at) / RFU KRTAP10-2 (11738614_at) / Fold change /veh KRTAP10-2 (11738614_at) / RFU ARHGAP8 /// PRR5-ARHGAP8 (11727945_x_at) / Fold change /veh ARHGAP8 /// PRR5-ARHGAP8 (11727945_x_at) / RFU KRTAP5-7 /// NADSYN1 (11734609_at) / Fold change /veh KRTAP5-7 /// NADSYN1 (11734609_at) / RFU RASL12 (11751679_a_at) / Fold change /veh RASL12 (11751679_a_at) / RFU CDKN2B (11736163_a_at) / Fold change /veh CDKN2B (11736163_a_at) / RFU PRF1 (11729649_at) / Fold change /veh PRF1 (11729649_at) / RFU, ZNF638 /// ZNF638-IT1 / Fold change vs veh, ZNF638 /// ZNF638-IT1 / RFU, PANK3 / Fold change vs veh, PANK3 / RFU, SH3YL1 / Fold change vs veh, SH3YL1 / RFU, ZEB2 / Fold change vs veh, ZEB2 / RFU, NRIP1 / Fold change vs veh, NRIP1 / RFU, PTTG1IP / Fold change vs veh, PTTG1IP / RFU, CAPN2 / Fold change vs veh, CAPN2 / RFU, MED14 / Fold change vs veh, MED14 / RFU, SNORA58 / Fold change vs veh, SNORA58 / RFU, C1orf63 / Fold change vs veh, C1orf63 / RFU, LRRFIP1 / Fold change vs veh, LRRFIP1 / RFU, NDUFAF7 / Fold change vs veh, NDUFAF7 / RFU, SLC12A2 / Fold change vs veh, SLC12A2 / RFU, IBTK / Fold change vs veh, IBTK / RFU, ESF1 / Fold change vs veh, ESF1 / Fold change vs veh, TMEM50B / RFU, TAOK1 / Fold change vs veh, TAOK1 / RFU, ACBD3 / Fold change vs veh, ACBD3 / RFU, TMA16 / Fold change vs veh, TMA16 / RFU, RWDD3 / Fold change vs veh, RWDD3 / RFU, BCAT1 / Fold change vs veh, BCAT1 / RFU, EDEM3 / Fold change vs veh, EDEM3 / RFU, TMEM33 / Fold change vs veh, TMEM33 / RFU, WDR75 / Fold change vs veh, WDR75 / RFU, AHCTF1 / Fold change vs veh, AHCTF1 / RFU, TFRC / Fold change vs veh, TFRC / RFU, ZDHHC17 / Fold change vs veh, ZDHHC17 / RFU, NOM1 / Fold change vs veh, NOM1 / RFU, ARL8B / Fold change vs veh, ARL8B / RFU, ZBTB11 / Fold change vs veh, ZBTB11 / RFU, TAMM41 / Fold change vs veh, TAMM41 / RFU, KIAA1704 /// LOC100996395 / Fold change vs veh, KIAA1704 /// LOC100996395 / RFU, ING1 / Fold change vs veh, ING1 / RFU, TRMT61B / Fold change vs veh, TRMT61B / RFU, FUBP3 / Fold change vs veh, FUBP3 / RFU, TP53 / Fold change vs veh, TP53 / RFU, TNKS2 / Fold change vs veh, TNKS2 / RFU, ZFP14 / Fold change vs veh, ZFP14 / RFU, ACTR2 / Fold change vs veh, ACTR2 / RFU, PPP3R1 / Fold change vs veh, PPP3R1 / RFU, PIK3R1 / Fold change vs veh, PIK3R1 / RFU, HNRNPA1 / Fold change vs veh, HNRNPA1 / RFU, RNF170 / Fold change vs veh, RNF170 / RFU, ZNF28 / Fold change vs veh, ZNF28 / RFU, RNGTT / Fold change vs veh, RNGTT / RFU, OGT / Fold change vs veh, OGT / RFU, BRD1 / Fold change vs veh, BRD1 / RFU, MARS / Fold change vs veh, MARS / RFU, ZNF655 / Fold change vs veh, ZNF655 / RFU, FAHD1 / Fold change vs veh, FAHD1 / RFU, BDP1 / Fold change vs veh, BDP1 / RFU, LRRCC1 / Fold change vs veh, LRRCC1 / RFU, ARID1A / Fold change vs veh, ARID1A / RFU, ZNF146 / Fold change vs veh, ZNF146 / RFU, ZNF330 / Fold change vs veh, ZNF330 / RFU, GPN3 / Fold change vs veh, GPN3 / RFU, C9orf123 / Fold change vs veh, C9orf123 / RFU, N4BP2L2 / Fold change vs veh, N4BP2L2 / RFU, ARFIP1 / Fold change vs veh, ARFIP1 / RFU, FAM179B / Fold change vs veh, FAM179B / RFU, BCL10 / Fold change vs veh, BCL10 / RFU, UHRF1BP1L / Fold change vs veh, UHRF1BP1L / RFU, BET1 / Fold change vs veh, BET1 / RFU, CNOT2 / Fold change vs veh, CNOT2 / RFU, ZNF268 / Fold change vs veh, ZNF268 / Fold change vs veh, ZNF507 / RFU, DGCR2 / Fold change vs veh, DGCR2 / RFU, WDSUB1 / Fold change vs veh, WDSUB1 / Fold change vs veh, HSP90B1 /// MIR3652 / RFU, ADSS / Fold change vs veh, ADSS / RFU, GK / Fold change vs veh, GK / RFU, ZNF148 / Fold change vs veh, ZNF148 / RFU, TAF9 / Fold change vs veh, TAF9 / RFU, SLC1A5 / Fold change vs veh, SLC1A5 / RFU, SLMO2 / Fold change vs veh, SLMO2 / RFU, ABCC4 / Fold change vs veh, ABCC4 / RFU, LOC101060439 /// RAP1B / Fold change vs veh, LOC101060439 /// RAP1B / RFU, RFX7 / Fold change vs veh, RFX7 / RFU, GTPBP10 / Fold change vs veh, GTPBP10 / RFU, CNEP1R1 / Fold change vs veh, CNEP1R1 / RFU, BIVM-ERCC5 /// ERCC5 / Fold change vs veh, BIVM-ERCC5 /// ERCC5 / RFU, ILF3 / Fold change vs veh, ILF3 / RFU 11762660_at / Fold change /veh 11762660_at / RFU VCAN (11757783_s_at) / Fold change /veh VCAN (11757783_s_at) / RFU DDX43 (11728927_at) / Fold change /veh DDX43 (11728927_at) / RFU KRT8 (11758188_x_at) / Fold change /veh KRT8 (11758188_x_at) / RFU NKD1 (11759106_at) / Fold change /veh NKD1 (11759106_at) / RFU SRD5A1 (11742802_a_at) / Fold change /veh SRD5A1 (11742802_a_at) / RFU TPSAB1 /// TPSB2 (11721975_s_at) / Fold change /veh TPSAB1 /// TPSB2 (11721975_s_at) / RFU GSTM3 (11746129_a_at) / Fold change /veh GSTM3 (11746129_a_at) / RFU IL23R (11737362_x_at) / Fold change /veh IL23R (11737362_x_at) / RFU TMEM51 (11727254_a_at) / Fold change /veh TMEM51 (11727254_a_at) / RFU PIWIL2 (11732686_x_at) / Fold change /veh PIWIL2 (11732686_x_at) / RFU ORM1 (11744905_x_at) / Fold change /veh ORM1 (11744905_x_at) / RFU CCDC152 (11743942_at) / Fold change /veh CCDC152 (11743942_at) / RFU ECM1 (11717891_a_at) / Fold change /veh ECM1 (11717891_a_at) / RFU IL23R (11748794_a_at) / Fold change /veh IL23R (11748794_a_at) / RFU TNFAIP8L3 (11732012_x_at) / Fold change /veh TNFAIP8L3 (11732012_x_at) / RFU MBOAT4 (11741988_at) / Fold change /veh MBOAT4 (11741988_at) / RFU 11764193_at / Fold change /veh 11764193_at / RFU TMEM53 (11763286_at) / Fold change /veh TMEM53 (11763286_at) / RFU MAGEB2 (11727129_at) / Fold change /veh MAGEB2 (11727129_at) / RFU TMEM200A (11744735_a_at) / Fold change /veh TMEM200A (11744735_a_at) / RFU CCDC152 (11751479_a_at) / Fold change /veh CCDC152 (11751479_a_at) / RFU FAM211A (11726209_a_at) / Fold change /veh FAM211A (11726209_a_at) / RFU RGS16 (11746705_a_at) / Fold change /veh RGS16 (11746705_a_at) / RFU VCAN (11755009_s_at) / Fold change /veh VCAN (11755009_s_at) / RFU RHOB (11743442_s_at) / Fold change /veh RHOB (11743442_s_at) / RFU RGS16 (11720943_a_at) / Fold change /veh RGS16 (11720943_a_at) / RFU RGS16 (11720944_at) / Fold change /veh RGS16 (11720944_at) / RFU, VPS4B / Fold change vs veh, VPS4B / RFU, CREB1 / Fold change vs veh, CREB1 / RFU, DNAJC13 / Fold change vs veh, DNAJC13 / RFU, GNAQ / Fold change vs veh, GNAQ / RFU, CDK5R1 / Fold change vs veh, CDK5R1 / RFU, ZRANB3 / Fold change vs veh, ZRANB3 / RFU, CUL4A / Fold change vs veh, CUL4A / RFU, CCNY / Fold change vs veh, CCNY / RFU, UFL1 / Fold change vs veh, UFL1 / RFU, COG3 / Fold change vs veh, COG3 / RFU, DIAPH2 / Fold change vs veh, DIAPH2 / RFU, SKA2 / Fold change vs veh, SKA2 / RFU, AFF3 / Fold change vs veh, AFF3 / RFU, LMF1 / Fold change vs veh, LMF1 / RFU, IPO11 / Fold change vs veh, IPO11 / RFU, DFFB / Fold change vs veh, DFFB / RFU, FOXP1 / Fold change vs veh, FOXP1 / RFU, CARD8 / Fold change vs veh, CARD8 / RFU, STRN3 / Fold change vs veh, STRN3 / RFU, ADK / Fold change vs veh, ADK / RFU, RASSF2 / Fold change vs veh, RASSF2 / RFU, WIPF1 / Fold change vs veh, WIPF1 / RFU, LARP1B / Fold change vs veh, LARP1B / RFU, RASA1 / Fold change vs veh, RASA1 / RFU, RB1 / Fold change vs veh, RB1 / RFU, PPFIA1 / Fold change vs veh, PPFIA1 / RFU, MAT2A / Fold change vs veh, MAT2A / RFU, CCT5 / Fold change vs veh, CCT5 / RFU, WDR92 / Fold change vs veh, WDR92 / RFU, CUX1 / Fold change vs veh, CUX1 / RFU, TTC7A / Fold change vs veh, TTC7A / RFU, TMEM135 / Fold change vs veh, TMEM135 / RFU, DEPTOR / Fold change vs veh, DEPTOR / RFU, CPM / Fold change vs veh, CPM / RFU, DNAJB6 / Fold change vs veh, DNAJB6 / RFU, CACNA2D3 / Fold change vs veh, CACNA2D3 / RFU, DTX4 / Fold change vs veh, DTX4 / RFU, TFCP2 / Fold change vs veh, TFCP2 / RFU, GMCL1 /// GMCL1P1 / Fold change vs veh, GMCL1 /// GMCL1P1 / RFU, AEBP2 / Fold change vs veh, AEBP2 / RFU, SNHG1 /// SNORD22 /// SNORD25 /// SNORD26 /// SNORD27 /// SNORD28 /// SNORD29 /// SNORD31 / Fold change vs veh, SNHG1 /// SNORD22 /// SNORD25 /// SNORD26 /// SNORD27 /// SNORD28 /// SNORD29 /// SNORD31 / Fold change (Aza/veh), C12orf56 (ProbeSet 11735607_a_at) / Fold change (ACY-1035/veh), C12orf56 (ProbeSet 11735607_a_at) / Fold change (Aza/veh), FGFR1OP (ProbeSet 11751329_s_at) / Fold change (ACY-1035/veh), FGFR1OP (ProbeSet 11751329_s_at) / Fold change (Aza/veh), VPS36 (ProbeSet 11739960_a_at) / Fold change (ACY-1035/veh), VPS36 (ProbeSet 11739960_a_at) / RFU SYPL1 (11715823_x_at) / Fold change /veh SYPL1 (11715823_x_at) / RFU IGFBP7 (11715501_s_at) / Fold change /veh IGFBP7 (11715501_s_at) / RFU REEP3 (11722064_at) / Fold change /veh REEP3 (11722064_at) / RFU IGLL1 (11728026_x_at) / Fold change /veh IGLL1 (11728026_x_at): dose or concentration left out as unconfirmed
# Conditions: ProbeSet 11716931_at; LIST B
structure (smiles),measurement,value
Nc1ccc(-c2cccs2)cc1NC(=O)c1ccc2c(c1)cc(C1CC1)n2CCN1CCOCC1 [ACY-1035],"Fold change vs veh, DGCR2",1.13
